In brackets after ≈: the same amount, converted by molar mass.
Assays:
Sprague Dawley rats = test: 28-day oral toxicity test: hematology
[1] = Solubility in 95% ethanol; format: physicochemical; conditions: organic solvent or mixture
Method: Optical pure antrocin, with a purity > 95%, was provided by Professor Zhen Yang at the School of Chemical Biology and Biotechnology, Peking University. […] A 50 mg/mL ethanol solution of antrocin was prepared as a stock solution, and was diluted before testing. All of the samples were stored at 4 °C.

[2] = test system: Salmonella typhimurium TA102; test: Ames test (plate incorporation), TA102
[3] = test system: Salmonella typhimurium TA1537; test: Ames test (plate incorporation), TA1537
[4] = female rats, 7.5 mg/kg oral 28 d
[5] = female rats, 37.5 mg/kg oral 28 d
[6] = male rats, 37.5 mg/kg oral 28 d

For `C=C1CC[C@H]2C(C)(C)CCC[C@@]23C(=O)OC[C@@H]13` [Antrocin, (-)-Antrocin], the BASO (Sprague Dawley rats; [4]) was 0.0 ± 0.1%, the EOSIN (Sprague Dawley rats; [4]) was 2.1 ± 1.7% and the HCT (Sprague Dawley rats; [4]) was 45.0 ± 3.7%. It also gave an HGB (Sprague Dawley rats; [4]) of 14.7 ± 1.2 g/dL, an LYMPH (Sprague Dawley rats; [4]) of 86.1 ± 5.4% and an MCH (Sprague Dawley rats; [4]) of 19.5 ± 0.8 pg. It also gave an MCHC (Sprague Dawley rats; [4]) of 32.7 ± 0.3 g/dL, an MCV (Sprague Dawley rats; [4]) of 59.7 ± 1.7 fL and an MONO (Sprague Dawley rats; [4]) of 2.3 ± 1.1%. The NEUT (Sprague Dawley rats; [4]) was 9.6 ± 3.3%, the PLT (Sprague Dawley rats; [4]) was 606.0 ± 430.1 * 10^3/µL and the RBC (Sprague Dawley rats; [4]) was 7.5 ± 0.6 10^6/µL. The WBC (Sprague Dawley rats; [4]) was 8.7 ± 3.4 10^3/µL, the BASO (Sprague Dawley rats; [5]) was 0.2 ± 0.2% and the EOSIN (Sprague Dawley rats; [5]) was 1.2 ± 0.3%. It also gave an HCT (Sprague Dawley rats; [5]) of 48.4 ± 2.0%, an HGB (Sprague Dawley rats; [5]) of 15.8 ± 0.5 g/dL and an LYMPH (Sprague Dawley rats; [5]) of 84.5 ± 4.1%. The MCH (Sprague Dawley rats; [5]) was 19.8 ± 0.5 pg, the MCHC (Sprague Dawley rats; [5]) was 32.7 ± 0.4 g/dL and the MCV (Sprague Dawley rats; [5]) was 60.6 ± 1.0 fL. The MONO (Sprague Dawley rats; [5]) was 3.2 ± 2.0%, the NEUT (Sprague Dawley rats; [5]) was 10.9 ± 3.4% and the PLT (Sprague Dawley rats; [5]) was 1065.6 ± 199.8 10^3/µL. For the same compound, the RBC (Sprague Dawley rats; [5]) was 8.0 ± 0.4 10^6/µL, the WBC (Sprague Dawley rats; [5]) was 7.8 ± 4.5 10^3/µL and the BASO (Sprague Dawley rats; male rats, 7.5 mg/kg oral 28 d) was 0.0 ± 0.1%. For the same compound, the EOSIN (Sprague Dawley rats; male rats, 7.5 mg/kg oral 28 d) was 1.2 ± 0.3%, the HCT (Sprague Dawley rats; male rats, 7.5 mg/kg oral 28 d) was 45.8 ± 1.2% and the HGB (Sprague Dawley rats; male rats, 7.5 mg/kg oral 28 d) was 15.1 ± 0.4 g/dL. The LYMPH (Sprague Dawley rats; male rats, 7.5 mg/kg oral 28 d) was 77.2 ± 1.7 %, the MCH (Sprague Dawley rats; male rats, 7.5 mg/kg oral 28 d) was 19.7 ± 0.5 pg and the MCHC (Sprague Dawley rats; male rats, 7.5 mg/kg oral 28 d) was 32.9 ± 0.3 g/dL. For the same compound, the MCV (Sprague Dawley rats; male rats, 7.5 mg/kg oral 28 d) was 59.8 ± 1.5 fL, the MONO (Sprague Dawley rats; male rats, 7.5 mg/kg oral 28 d) was 2.7 ± 2.4% and the NEUT (Sprague Dawley rats; male rats, 7.5 mg/kg oral 28 d) was 18.9 ± 3.1%. The PLT (Sprague Dawley rats; male rats, 7.5 mg/kg oral 28 d) was 1235.2 ± 20.9 * 10^3/µL, the RBC (Sprague Dawley rats; male rats, 7.5 mg/kg oral 28 d) was 7.7 ± 0.1 10^6/µL and the WBC (Sprague Dawley rats; male rats, 7.5 mg/kg oral 28 d) was 5.3 ± 2.0 10^3/µL. The BASO (Sprague Dawley rats; [6]) was 0.1 ± 0.1%, the EOSIN (Sprague Dawley rats; [6]) was 0.6 ± 0.4% and the HCT (Sprague Dawley rats; [6]) was 48.3 ± 3.2%. For the same compound, the HGB (Sprague Dawley rats; [6]) was 15.7 ± 0.9 g/dL, the LYMPH (Sprague Dawley rats; [6]) was 83.9 ± 3.9 % and the MCH (Sprague Dawley rats; [6]) was 19.4 ± 0.6 pg. The MCHC (Sprague Dawley rats; [6]) was 32.4 ± 0.6 g/dL, the MCV (Sprague Dawley rats; [6]) was 59.8 ± 1.3 fL and the MONO (Sprague Dawley rats; [6]) was 1.8 ± 1.1%. The NEUT (Sprague Dawley rats; [6]) was 13.6 ± 3.7 %, the PLT (Sprague Dawley rats; [6]) was 1372.2 ± 161.8 * 10^3/µL and the RBC (Sprague Dawley rats; [6]) was 8.1 ± 0.6 10^6/µL. For the same compound, the WBC (Sprague Dawley rats; [6]) was 6.4 ± 1.1 10^3/µL, the solubility [1] was ~133 mg/mL (≈ 568 mM) and the “Number of Revertant” value ([2]; TA102, with S9, 0.003125 mg/plate) was 352.0 ± 8.5 Colony/Plate. The “Number of Revertant” value ([2]; TA102, with S9, 0.00625 mg/plate) was 326.7 ± 5.9 Colony/Plate, the “Number of Revertant” value ([2]; TA102, with S9, 0.025 mg/plate) was 327.3 ± 7.7 Colony/Plate and the “Number of Revertant” value ([2]; TA102, with S9, 0.05 mg/plate) was 322.0 ± 6.2 Colony/Plate. For the same compound, the “Number of Revertant” value ([2]; TA102, without S9, 0.003125 mg/plate) was 245.7 ± 10.4 Colony/Plate, the “Number of Revertant” value ([2]; TA102, without S9, 0.00625 mg/plate) was 246.0 ± 16.4 Colony/Plate and the “Number of Revertant” value ([2]; TA102, without S9, 0.025 mg/plate) was 278.3 ± 4.5 Colony/Plate. The “Number of Revertant” value ([2]; TA102, without S9, 0.05 mg/plate) was 270.0 ± 11.2 Colony/Plate, the “Number of Revertant” value ([3]; TA1537, with S9, 0.003125 mg/plate) was 11.7 ± 1.9 Colony/Plate and the “Number of Revertant” value ([3]; TA1537, with S9, 0.00625 mg/plate) was 6.7 ± 2.4 Colony/Plate. The “Number of Revertant” value ([3]; TA1537, with S9, 0.025 mg/plate) was 10.3 ± 2.1 Colony/Plate, the “Number of Revertant” value ([3]; TA1537, with S9, 0.05 mg/plate) was 6.0 ± 1.4 Colony/Plate and the “Number of Revertant” value ([3]; TA1537, without S9, 0.003125 mg/plate) was 14.3 ± 2.6 Colony/Plate. For the same compound, the “Number of Revertant” value ([3]; TA1537, without S9, 0.00625 mg/plate) was 8.7 ± 0.5 Colony/Plate, the “Number of Revertant” value ([3]; TA1537, without S9, 0.025 mg/plate) was 13.0 ± 2.2 Colony/Plate and the “Number of Revertant” value ([3]; TA1537, without S9, 0.05 mg/plate) was 9.7 ± 0.9 Colony/Plate.

Source: publication PMC10301922, “Anti-Oxidant, Anti-Mutagenic Activity and Safety Evaluation of Antrocin” (Toxics, 2023)
